Source: PubChem BioAssay AID1963966 (Molecular Pharmacology Branch, DTP, NCI, 2024)

Tested on: 935938-334-R-J1-PDC spheroids with HUVEC/MSC, viability
Experiment: Anticancer human tumor 935938-334-R-J1-PDC patient-derived small intestine adenocarcinoma cell line growth inhibition [PI3K]
Conditions: for viability, T/C: stronger effect = lower value
How it was run: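 Complex 3D spheroids (cancer cells + endothelial HUVEC + mesenchymal stem cells); drug pairs of targeted agent x inavolisib/alpelisib/duvelisib/copanlisib; half-log series from ~Cmax, max 10 microM if Cmax unknown; endpoint viability.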
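Also: compound exposure lasted seven days before viability was read.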
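For viability, T/C in this document: percent of vehicle DMSO treated spheroid viability so 100% = untreated.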

Cn1nccc1Nc1nccc(-c2ccn(C(CO)c3ccc(Cl)c(F)c3)c(=O)c2)n1 (stereo unspecified)
viability, T/C (compound 0.0316 µM): 101% [middle of 4 runs] | viability, T/C (compound 0.316 µM): 68.3% [middle of 4 runs] | viability, T/C (compound 1 µM): 52.5% [middle of 4 runs] | viability, T/C (compound 3.16 µM): 43.4% [middle of 4 runs] | viability, T/C (compound 10 µM): 37% [middle of 4 runs] | IC50 (curve of compound): 1.06 µM [middle of 4 runs]

C#Cc1c(F)ccc2cc(O)cc(-c3ncc4c(N5CC6CCC(C5)N6)nc(OCC56CCCN5CC(F)C6)nc4c3F)c12 (stereo unspecified)
viability, T/C (compound 3.16 µM): 52.5% [middle of 4 runs] | viability, T/C (compound 10 µM): 43.6% [middle of 4 runs] | IC50 (curve of compound): 4.79 µM [middle of 4 runs]

CC(C)n1nc(-c2ccc3oc(N)nc3c2)c2c(N)ncnc21 + CC(Nc1ncnc2nc[nH]c12)c1cc2cccc(Cl)c2c(=O)n1-c1ccccc1
IC50 (curve of first compound, second compound 0.0316 µM): > 100 nM | IC50 (curve of first compound, second compound 0.1 µM): > 100 nM | IC50 (curve of first compound, second compound 0.316 µM): > 100 nM | IC50 (curve of first compound, second compound 1 µM): > 100 nM | IC50 (curve of first compound, second compound 3.16 µM): > 100 nM | IC50 (curve of first compound, second compound 10 µM): 71.6 nM | viability, T/C (second compound 0.0316 µM, first compound 0.000316 µM): 120% | viability, T/C (second compound 0.0316 µM, first compound 0.001 µM): 104% | viability, T/C (second compound 0.0316 µM, first compound 0.00316 µM): 99.8% | viability, T/C (second compound 0.0316 µM, first compound 0.01 µM): 99.1% | viability, T/C (second compound 0.0316 µM, first compound 0.0316 µM): 78.6% | viability, T/C (second compound 0.0316 µM, first compound 0.1 µM): 62.9% | viability, T/C (second compound 0.1 µM, first compound 0.000316 µM): 97.3% | viability, T/C (second compound 0.1 µM, first compound 0.001 µM): 85.9% | viability, T/C (second compound 0.1 µM, first compound 0.00316 µM): 84.5% | viability, T/C (second compound 0.1 µM, first compound 0.01 µM): 91.3% | viability, T/C (second compound 0.1 µM, first compound 0.0316 µM): 88.3% | viability, T/C (second compound 0.1 µM, first compound 0.1 µM): 62% | viability, T/C (second compound 0.316 µM, first compound 0.000316 µM): 78.2% | viability, T/C (second compound 0.316 µM, first compound 0.001 µM): 85.6% | viability, T/C (second compound 0.316 µM, first compound 0.00316 µM): 83.2% | viability, T/C (second compound 0.316 µM, first compound 0.01 µM): 96.2% | viability, T/C (second compound 0.316 µM, first compound 0.0316 µM): 72.1% | viability, T/C (second compound 0.316 µM, first compound 0.1 µM): 57.9% | viability, T/C (second compound 1 µM, first compound 0.000316 µM): 111% | viability, T/C (second compound 1 µM, first compound 0.001 µM): 91.7% | viability, T/C (second compound 1 µM, first compound 0.00316 µM): 81.5% | viability, T/C (second compound 1 µM, first compound 0.01 µM): 84% | viability, T/C (second compound 1 µM, first compound 0.0316 µM): 82.4% | viability, T/C (second compound 1 µM, first compound 0.1 µM): 47.6% | viability, T/C (second compound 3.16 µM, first compound 0.000316 µM): 87.5% | viability, T/C (second compound 3.16 µM, first compound 0.001 µM): 74% | viability, T/C (second compound 3.16 µM, first compound 0.00316 µM): 76.7% | viability, T/C (second compound 3.16 µM, first compound 0.01 µM): 70.4% | viability, T/C (second compound 3.16 µM, first compound 0.0316 µM): 57.6% | viability, T/C (second compound 3.16 µM, first compound 0.1 µM): 51.2% | viability, T/C (second compound 10 µM, first compound 0.000316 µM): 72.7% | viability, T/C (second compound 10 µM, first compound 0.001 µM): 94.1% | viability, T/C (second compound 10 µM, first compound 0.00316 µM): 61.5% | viability, T/C (second compound 10 µM, first compound 0.01 µM): 71.5% | viability, T/C (second compound 10 µM, first compound 0.0316 µM): 68.5% | viability, T/C (second compound 10 µM, first compound 0.1 µM): 43%
